This note sets out measurements from US20230286930A1, “N -SUBSTITUTED 4-(1,3-ARYLOXAZOLO-2-YL)PHENYL COMPOUNDS FOR THE TREATMENT AND PROPHYLAXIS OF HEPATITIS B VIRUS INFECTION” (Hoffmann-La Roche Inc., priority 2020, published 2023).

One data set relates to HBsAg. The experiment in a line: PHH natural infection assay, HBsAg (alphalisa). Format: cell-based, HBV. The note with it: Hepatitis B virus, read-out: HBsAg IC50. How it is done: (§1) Detailed procedures regarding primary human hepatocyte (PHH) HBV natural infection assay are described as below. One tube of frozen PHH (10 million cells) is thawed in 37° C. water bath and then transferred to 20 mL of PHH thawing medium (Sigma, InVitroGRO HT Medium, Cat. S03319) with gently mixing. The cells were then centrifuged at […] for 5 min, the supernatant was discarded and the tube was refilled with 25 mL of PHH plating medium (Sigma, InVitroGRO CP Medium, Cat. S03317). The tube was shaken very gently to re-suspend all cells, and then 50 μL of cells were transferred to each well 384-well collagen I coated plate with appropriate liquid handling equipment, e.g. Integra VIAFLO384 or Agilent Bravo. The cells were then cultured for 24 hours in a cell incubator. For HBV infection, after PHH attachment on the culture plate, the plating medium was removed and replenished with PHH culture medium containing HBV virus. The PHH culture medium was prepared with Dulbecco's Modified Eagle Medium (DMEM)/F12 (1:1 in volume ratio) containing 10% fetal bovine serum (Gibco, Cat. 10099141), 5 ng/mL human epidermal growth factor (Gibco, Cat.PHG0311L), 20 ng/mL dexamethasone (Sigma, Cat.D4902-100 mg), 250 ng/mL human recombinant insulin (Gibco, Cat.41400045) and 100 U/mL penicillin. HBV virus at 200 genome equivalent (GE) per cell with 4% PEG8000 (Sigma, Cat.P1458) containing culture medium were added to the PHH culture medium for infection. The cells were then cultured for 24 hours in cell incubator. Then the cell culture supernatant was removed. The HBV-infected PHH were cultured with sandwich culture method with PHH culture medium containing 1% DMSO and 0.25 mg/mL matrix gel for 72 hours. The supernatant was then refreshed with PHH culture medium containing different concentrations of testing compounds for two times with 72-hour interval. At the end of treatment, the supernatant was collected for viral markers measurements, including HBsAg, HBeAg, HBV DNA and cytotoxicity. HBsAg and HBeAg were detected using alphalisa method using their specific antibodies. For HBV DNA detection, HBV DNA Quantitative Fluorescence Diagnostic Kit (Sansure Biotech Inc.) was used following the manufacture's protocol. Cytotoxicity was determined using Cell Counting Kit-8 (CCK8, Dojindo Molecular Technologies, Inc.).
(§2) The compounds of the present invention were tested for their capacity to inhibit HBsAg and HBeAg as described herein.

The next data set deals with HBeAg. The experiment in a line: PHH natural infection assay, HBeAg (alphalisa). Type of data set: cell-based, HBV. The note with it: Hepatitis B virus, read-out: HBeAg IC50. As for the experimental part:
as §1, §2
A general note: In Alpha technology, singlet oxygen from a donor bead excites a nearby acceptor bead.

The nature of data set [1]: PHH natural infection assay, cytotoxicity (Cell Counting Kit-8). Format: cell-based. The note with it: human. As for the experimental part: as §1
(In general: Tetrazolium assays rely on reduction of a dye to a coloured formazan, in cell work by metabolically active cells.)

pIC50: −log10 of the molar value.

Regarding `O=C(Nc1ccc(-c2nc3cccc(F)c3o2)cc1)C1CC1(F)F` (stereo not drawn) [Example 27, 2,2-difluoro-N-[4-(7-fluoro-1,3-benzoxazol-2-yl)phenyl]cyclopropanecarboxamide], the negative-log IC50 (pIC50) in the data set on HBsAg is 5.96; in the data set on HBeAg, 6.15. Moreover, the CC50 at 144 h in data set [1] was greater than 100 µM.
The like results for `Cc1coc(C(=O)Nc2ccc(-c3nc4c(F)cccc4o3)cc2)n1` [Example 43, N-[4-(4-fluoro-1,3-benzoxazol-2-yl)phenyl]-4-methyl-oxazole-2-carboxamide] were, in that order, 5.96, 5.97 and greater than 100 µM.
For the molecule `CC(C)(C)C(=O)Nc1ccc(-c2nc3ccc(F)cc3o2)cc1` [Example 3, N-[4-(6-fluoro-1,3-benzoxazol-2-yl)phenyl]-2,2-dimethyl-propanamide], the pIC50 in the data set with HBsAg is 5.91; in the data set on HBeAg, 5.79. In data set [1], this molecule came in with a CC50 at 144 h greater than 100 µM.
The corresponding values for `O=C(Nc1ccc(-c2nc3ccc(F)cc3o2)cc1)C1CCOC1` (stereo not drawn) [Example 1, N-[4-(6-fluoro-1,3-benzoxazol-2-yl)phenyl]tetrahydrofuran-3-carboxamide] are 6.11, 6.15 and greater than 100 µM.
The like results for `O=C(Nc1ccc(-c2nc3cc(Cl)ccc3o2)cc1)c1ncco1` [Example 73, N-[4-(5-chloro-1,3-benzoxazol-2-yl)phenyl]oxazole-2-carboxamide] were, in that order, 5.75, 5.69 and greater than 100 µM.
Take `CC(O)C(=O)Nc1ccc(-c2nc3c(F)cccc3o2)cc1` (stereo not drawn) [Example 52, N-[4-(4-fluoro-1,3-benzoxazol-2-yl)phenyl]-2-hydroxy-propanamide]: the values for the pIC50 with HBsAg and in the data set with HBeAg were 5.76 and 5.75, respectively. Further, the CC50 at 144 h in data set [1] was greater than 100 µM.
Regarding `O=C(Nc1ccc(-c2nc3cccc(F)c3o2)cc1)c1ccoc1` [Example 11, N-[4-(7-fluoro-1,3-benzoxazol-2-yl)phenyl]furan-3-carboxamide], the values for the pIC50 in the data set on HBsAg and in the data set with HBeAg were 5.69 and 5.25, respectively. The CC50 at 144 h in data set [1] is greater than 100 µM.
The corresponding values for `O=C(Nc1ccc(-c2nc3cccnc3o2)cc1)[C@H]1CCS(=O)(=O)C1` (single isomer, unassigned) [Example 86-a] are 5.35, 5.14 and greater than 100 µM.
The corresponding values for `O=C(Nc1ccc(-c2nc3c(F)cccc3o2)cc1)C1CCS(=O)(=O)C1` (stereo not drawn) [Example 50, N-[4-(4-fluoro-1,3-benzoxazol-2-yl)phenyl]-1,1-dioxo-thiolane-3-carboxamide] are 5.92, 5.82 and greater than 100 µM.
The like results for `O=C(Nc1ccc(-c2nc3cccc(F)c3o2)cc1)C1CCS(=O)(=O)CC1` [Example 18, N-[4-(7-fluoro-1,3-benzoxazol-2-yl)phenyl]-1,1-dioxo-thiane-4-carboxamide] were, in that order, 6.04, 6.02 and greater than 100 µM.
For `O=C(Nc1ccc(-c2nc3cccc(F)c3o2)cc1)C1CC2CCC(C1)O2` (stereo not drawn) [Example 22, N-[4-(7-fluoro-1,3-benzoxazol-2-yl)phenyl]-8-oxabicyclo[3.2.1]octane-3-carboxamide], the pIC50 with HBsAg was 6.02; with HBeAg it was 5.91. Moreover, the CC50 at 144 h in data set [1] was greater than 100 µM.
On to `O=C(Nc1ccc(-c2nc3c(F)c(F)ccc3o2)cc1)C1CCOC1` (stereo not drawn) [Example 69, N-[4-(4,5-difluoro-1,3-benzoxazol-2-yl)phenyl]tetrahydrofuran-3-carboxamide], for which the results for the negative-log IC50 (pIC50) with HBsAg and in the data set with HBeAg were 5.83 and 5.68, respectively. The CC50 at 144 h in data set [1] is greater than 100 µM.
The corresponding values for `Cc1ccc2nc(-c3ccc(NC(=O)C4CCOC4)cc3)oc2n1` (stereo not drawn) [Example 71, N-[4-(5-methyloxazolo[5,4-b]pyridin-2-yl)phenyl]tetrahydrofuran-3-carboxamide] are 5.03, 4.76 and greater than 100 µM.
The corresponding values for `O=C(Nc1ccc(-c2nc3cccc(F)c3o2)cc1)OC1CCOC1` (stereo not drawn) [Example 37, tetrahydrofuran-3-yl N-[4-(7-fluoro-1,3-benzoxazol-2-yl)phenyl]carbamate] are 5.46, 5.37 and greater than 100 µM.
The corresponding values for `O=C(Nc1ccc(-c2nc3cccc(F)c3o2)cc1)C1COC1` [Example 29, N-[4-(7-fluoro-1,3-benzoxazol-2-yl)phenyl]oxetane-3-carboxamide] are 5.86, 5.84 and greater than 100 µM.
In the case of `O=C(Nc1ccc(-c2nc3cc(Cl)ccc3o2)cc1)C12CC(C1)C2` [Example 76, N-[4-(5-chloro-1,3-benzoxazol-2-yl)phenyl]bicyclo[1.1.1]pentane-1-carboxamide], the pIC50 is 5.80 in the data set with HBsAg and 5.68 in the data set with HBeAg. In addition, in data set [1], the CC50 at 144 h is greater than 100 µM.
Regarding `O=C(Nc1ccc(-c2nc3cccc(F)c3o2)cc1)C1CCOCC1` [Example 28, N-[4-(7-fluoro-1,3-benzoxazol-2-yl)phenyl]tetrahydropyran-4-carboxamide], the pIC50 with HBsAg was 6.02; in the data set on HBeAg, 6.00. Further, the CC50 at 144 h in data set [1] is greater than 100 µM.
Take `O=C(Nc1ccc(-c2nc3cc(Cl)ccc3o2)cc1)[C@H]1CCOC1` (single isomer, unassigned) [Example 87-b]: the pIC50 is 5.40 with HBsAg and 5.42 with HBeAg. The same molecule yielded a CC50 at 144 h in data set [1] greater than 100 µM.
The corresponding values for `O=C(Nc1ccc(-c2nc3ccc(F)c(F)c3o2)cc1)C1CCOC1` (stereo not drawn) [Example 82, N-[4-(6,7-difluoro-1,3-benzoxazol-2-yl)phenyl]tetrahydrofuran-3-carboxamide] are 6.28, 6.26 and greater than 100 µM.
The corresponding values for `O=C(Nc1ccc(-c2nc3cccc(Cl)c3o2)cc1)C1CCS(=O)(=O)C1` (stereo not drawn) [Example 85, N-[4-(7-chloro-1,3-benzoxazol-2-yl)phenyl]-1,1-dioxo-thiolane-3-carboxamide] are 5.57, 5.76 and greater than 100 µM.
Consider `CC1(C(=O)Nc2ccc(-c3nc4cccc(F)c4o3)cc2)CCC1` [Example 34, N-[4-(7-fluoro-1,3-benzoxazol-2-yl)phenyl]-1-methyl-cyclobutanecarboxamide], for which the pIC50 in the data set with HBsAg is 5.79; with HBeAg, 5.75. The molecule further yielded a CC50 at 144 h in data set [1] greater than 100 µM.
The corresponding values for `O=C(Nc1ccc(-c2nc3cccc(F)c3o2)cc1)C1CCS(=O)(=O)C1` (stereo not drawn) [Example 17, N-[4-(7-fluoro-1,3-benzoxazol-2-yl)phenyl]-1,1-dioxo-thiolane-3-carboxamide] are 6.27, 6.20 and greater than 100 µM.
`Cc1coc(C(=O)Nc2ccc(-c3nc4ccc(F)c(F)c4o3)cc2)n1` [Example 79, N-[4-(6,7-difluoro-1,3-benzoxazol-2-yl)phenyl]-4-methyl-oxazole-2-carboxamide]: the pIC50 in the data set with HBsAg is 6.09; in the data set on HBeAg it was 5.99. In data set [1], this molecule returned a CC50 at 144 h greater than 100 µM.

One may read the pIC50 as the IC50 on a negative log10 scale, so that one unit is a factor of ten. What is called CC50 is the concentration giving 50% cytotoxicity.
